# Laboratory results taken from patent US20240109900A1, “AZABICYCLIC SHP2 INHIBITORS” (IRBM S.P.A., priority 2021, published 2024).
# Read-outs that look alike come from different tables or passages of the source.
# What was measured:
# [1] = molecular target: SHP-2 enzyme (Met1-Leu525) (Homo sapiens (Human), UniProt Q06124); assay: SHP2 inhibition enzymatic assay; type: biochemical; settings: 0.5 nM SHP-2 activated by 500 nM IRS1 peptide, 75 μM DiFMUP substrate; read-out: SHP2wt-IC50
# Method in brief: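 Compounds were preincubated 30 min with 0.5 nM SHP-2 (Met1-Leu525) plus 500 nM IRS1 activating peptide (pH 7.2 HEPES, 5 mM DTT), then 75 μM DiFMUP substrate reacted 30 min at room temperature. After bpV quench, DiFMUP fluorescence gave % inhibition; four-parameter logistic fit yielded IC50.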
# [2] = tested on: ERK phosphorylation in KYSE-520 cells; assay: Phospho-ERK cellular assay; type: cell-based; settings: KYSE-520 cells, 2 h at 37° C., phospho-ERK1/2 (Thr202/Tyr204) TR-FRET, read-out: PERK IC50
# Method in brief: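 TR-FRET read-out of ERK1/2 Thr202/Tyr204 phosphorylation was taken after overnight antibody incubation at room temperature. Before that, KYSE-520 cells were treated 2 h at 37 °C with compound dilutions and lysed 30 min. Percent inhibition relative to vehicle and cell-free wells was fitted four-parametrically to give IC50.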
# SHP-2 enzyme (Met1-Leu525), sequence (Q06124 1-525): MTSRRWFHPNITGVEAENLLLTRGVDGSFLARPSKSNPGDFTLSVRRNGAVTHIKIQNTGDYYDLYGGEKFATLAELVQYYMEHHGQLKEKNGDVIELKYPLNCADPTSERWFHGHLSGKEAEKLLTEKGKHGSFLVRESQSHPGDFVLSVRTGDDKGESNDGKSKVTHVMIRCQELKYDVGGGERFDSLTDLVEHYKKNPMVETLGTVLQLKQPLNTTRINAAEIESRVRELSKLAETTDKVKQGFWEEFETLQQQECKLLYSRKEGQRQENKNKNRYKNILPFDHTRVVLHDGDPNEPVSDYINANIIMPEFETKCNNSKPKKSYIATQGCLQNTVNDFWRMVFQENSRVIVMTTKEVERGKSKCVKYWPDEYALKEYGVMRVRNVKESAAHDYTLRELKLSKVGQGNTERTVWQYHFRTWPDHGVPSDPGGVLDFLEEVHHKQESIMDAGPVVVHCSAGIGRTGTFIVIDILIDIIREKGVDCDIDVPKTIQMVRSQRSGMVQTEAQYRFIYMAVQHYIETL
SMILES,IC50 [1],"IC50 ([2]; Homo sapiens, KYSE-520, 2 h)",IC50 [2]
"NCC1(c2ccc(F)cc2)C2CCN(c3cnc4c(-c5cccc6cccnc56)n[nH]c4n3)CC21 (stereo not drawn) [Example 12, (7-(4-fluorophenyl)-3-(3-(quinolin-8-yl)-1H-pyrazolo[3,4-b]pyrazin-6-yl)-3-azabicyclo[4.1.0]heptan-7-yl)methanamine]",0.5 to 3 µM,> 5 µM,–
"Cn1cc2c(Cl)c(-c3n[nH]c4nc(N5CC[C@@H]6[C@H](C5)[C@@]6(CN)c5c(F)cccc5F)cnc34)ccc2n1 [Example 117, ((1S,6R,7R)-3-(3-(4-chloro-2-methyl-2H-indazol-5-yl)-1H-pyrazolo[3,4-b]pyrazin-6-yl)-7-(2,6-difluorophenyl)-3-azabicyclo[4.1.0]heptan-7-yl)methanamine]",< 0.5 µM,< 1 µM,–
"NC[C@]1(c2ccccc2F)[C@@H]2CCN(c3cnc4c(-c5ccc6nc(C(F)(F)F)ncc6c5)n[nH]c4n3)C[C@@H]21 [Example 309, ((1S,6R,7R)-7-(2-fluorophenyl)-3-(3-(2-(trifluoromethyl)quinazolin-6-yl)-1H-pyrazolo[3,4-b]pyrazin-6-yl)-3-azabicyclo[4.1.0]heptan-7-yl)methanamine]",< 0.5 µM,> 5 µM,–
"NC[C@]1(c2ccccc2F)[C@@H]2CCN(c3cnc4c(-c5ccc6nn(C(F)F)cc6c5Cl)n[nH]c4n3)C[C@@H]21 [Example 335, ((1S,6R,7R)-3-(3-(4-chloro-2-(difluoromethyl)-2H-indazol-5-yl)-1H-pyrazolo[3,4-b]pyrazin-6-yl)-7-(2-fluorophenyl)-3-azabicyclo[4.1.0]heptan-7-yl)methanamine]",< 0.5 µM,< 1 µM,–
"Cn1cc2c(Cl)c(-c3n[nH]c4nc(N5C[C@@H]6[C@H](C5)[C@@]6(CN)c5cnsn5)cnc34)ccc2n1 [Example 490, ((1R,5S,6r)-3-(3-(4-chloro-2-methyl-2H-indazol-5-yl)-1H-pyrazolo[3,4-b]pyrazin-6-yl)-6-(1,2,5-thiadiazol-3-yl)-3-azabicyclo[3.1.0]hexan-6-yl)methanamine]",< 0.5 µM,< 1 µM,–
"NC[C@]1(c2ccccc2F)[C@@H]2CCN(c3cnc4c(-c5ccc(OC(F)F)c6ncccc56)n[nH]c4n3)C[C@@H]21 [Example 160, ((1S,6R,7R)-3-(3-(8-(difluoromethoxy)quinolin-5-yl)-1H-pyrazolo[3,4-b]pyrazin-6-yl)-7-(2-fluorophenyl)-3-azabicyclo[4.1.0]heptan-7-yl)methanamine]",< 0.5 µM,< 1 µM,–
CN(C)C(=O)Cn1ncc2c(Cl)c(-c3n[nH]c4nc(N5CC[C@@H]6[C@H](C5)[C@@]6(CN)c5ccccc5F)cnc34)ccc21 [Example 432],< 0.5 µM,–,< 1 µM
"Cc1csc([C@@]2(CN)[C@@H]3CN(c4cnc5c(-c6ccc(F)c7ncccc67)n[nH]c5n4)C[C@@H]32)n1 [Example 213, ((1R,5S,6r)-3-(3-(8-fluoroquinolin-5-yl)-1H-pyrazolo[3,4-b]pyrazin-6-yl)-6-(4-methylthiazol-2-yl)-3-azabicyclo[3.1.0]hexan-6-yl)methanamine]",< 0.5 µM,< 1 µM,–
"NC[C@]1(c2ccccc2F)[C@@H]2CCN(c3cnc4c(-c5ccc6c(c5)NC(=O)NC6)n[nH]c4n3)C[C@@H]21 [Example 372, 7-(6-((1S,6R,7R)-7-(aminomethyl)-7-(2-fluorophenyl)-3-azabicyclo[4.1.0]heptan-3-yl)-1H-pyrazolo[3,4-b]pyrazin-3-yl)-3,4-dihydroquinazolin-2(1H)-one]",< 0.5 µM,< 1 µM,–
"Cn1c(N2CC[C@@H]3[C@H](C2)[C@@]3(CN)c2ccccc2F)nc2[nH]cc(-c3ccc4c(=O)[nH]ccc4c3F)c2c1=O [Example 380, 6-(2-((1S,6R,7R)-7-(aminomethyl)-7-(2-fluorophenyl)-3-azabicyclo[4.1.0]heptan-3-yl)-3-methyl-4-oxo-4,7-dihydro-3H-pyrrolo[2,3-d]pyrimidin-5-yl)-5-fluoroisoquinolin-1(2H)-one]",< 0.5 µM,< 1 µM,–
"Cc1conc1C1(CN)C2CCN(c3cnc4c(-c5ccc6nn(C)cc6c5Cl)n[nH]c4n3)CC21 (stereo not drawn) [Example 15, (3-(3-(4-chloro-2-methyl-2H-indazol-5-yl)-1H-pyrazolo[3,4-b]pyrazin-6-yl)-7-(4-methylisoxazol-3-yl)-3-azabicyclo[4.1.0]heptan-7-yl)methanamine]",< 0.5 µM,< 1 µM,–
"Cc1nc2ccc(-c3n[nH]c4nc(N5C[C@@H]6[C@H](C5)[C@@]6(CN)c5ccn(C)n5)cnc34)c(Cl)c2s1 [Example 475, ((1R,5S,6r)-3-(3-(7-chloro-2-methylbenzo[d]thiazol-6-yl)-1H-pyrazolo[3,4-b]pyrazin-6-yl)-6-(1-methyl-1H-pyrazol-3-yl)-3-azabicyclo[3.1.0]hexan-6-yl)methanamine]",< 0.5 µM,< 1 µM,–
"NC[C@]1(c2ccccc2F)[C@@H]2CCN(c3cnc4c(-c5ccc6c(c5)CNC6=O)n[nH]c4n3)C[C@@H]21 [Example 218, 5-(6-((1S,6R,7R)-7-(aminomethyl)-7-(2-fluorophenyl)-3-azabicyclo[4.1.0]heptan-3-yl)-1H-pyrazolo[3,4-b]pyrazin-3-yl)isoindolin-1-one]",< 0.5 µM,< 1 µM,–
"NC[C@]1(c2ccccc2F)[C@@H]2CCN(c3cnc4c(-c5ccnc6c5CCO6)n[nH]c4n3)C[C@@H]21 [Example 154, ((1S,6R,7R)-3-(3-(2,3-dihydrofuro[2,3-b]pyridin-4-yl)-1H-pyrazolo[3,4-b]pyrazin-6-yl)-7-(2-fluorophenyl)-3-azabicyclo[4.1.0]heptan-7-yl)methanamine]",< 0.5 µM,< 1 µM,–
"Cc1cc([C@@]2(CN)[C@@H]3CCN(c4cnc5c(-c6ccnc7ncccc67)n[nH]c5n4)C[C@@H]32)no1 [Example 38, ((1S,6R,7S)-3-(3-(1,8-naphthyridin-4-yl)-1H-pyrazolo[3,4-b]pyrazin-6-yl)-7-(5-methylisoxazol-3-yl)-3-azabicyclo[4.1.0]heptan-7-yl)methanamine]",< 0.5 µM,< 1 µM,–
"NC[C@]1(c2ccccc2F)[C@@H]2CCN(c3cnc4c(-c5ccc(CO)c6ncccc56)n[nH]c4n3)C[C@@H]21 [Example 159, (5-(6-((1S,6R,7R)-7-(aminomethyl)-7-(2-fluorophenyl)-3-azabicyclo[4.1.0]heptan-3-yl)-1H-pyrazolo[3,4-b]pyrazin-3-yl)quinolin-8-yl)methanol]",< 0.5 µM,< 1 µM,–
"NC[C@]1(c2cccc(F)c2F)[C@@H]2CCN(c3cnc4c(-c5ccnc(N)c5Cl)n[nH]c4n3)C[C@@H]21 [Example 178, 4-(6-((1S,6R,7R)-7-(aminomethyl)-7-(2,3-difluorophenyl)-3-azabicyclo[4.1.0]heptan-3-yl)-1H-pyrazolo[3,4-b]pyrazin-3-yl)-3-chloropyridin-2-amine]",< 0.5 µM,< 1 µM,–

# Further lines, with some results ahead:
IC50 [1],"IC50 ([2]; Homo sapiens, KYSE-520, 2 h)",SMILES,IC50 [2]
< 0.5 µM,< 1 µM,"Cn1cc2c(Cl)c(-c3n[nH]c4nc(N5CCC6C(C5)C6(CN)c5ccc(F)cn5)cnc34)ccc2n1 (stereo not drawn) [Example 50, (3-(3-(4-chloro-2-methyl-2H-indazol-5-yl)-1H-pyrazolo[3,4-b]pyrazin-6-yl)-7-(5-fluoropyridin-2-yl)-3-azabicyclo[4.1.0]heptan-7-yl)methanamine]",–
< 0.5 µM,< 1 µM,"NC[C@]1(c2ccccc2F)[C@@H]2CCN(c3cnc4c(-c5ccc(F)c6[nH]c(=O)ccc56)n[nH]c4n3)C[C@@H]21 [Example 236, 5-(6-((1S,6R,7R)-7-(aminomethyl)-7-(2-fluorophenyl)-3-azabicyclo[4.1.0]heptan-3-yl)-1H-pyrazolo[3,4-b]pyrazin-3-yl)-8-fluoroquinolin-2(1H)-one]",–
< 0.5 µM,< 1 µM,Cc1nccc(-c2ccc3nc(N4CC[C@@H]5[C@H](C4)[C@@]5(CN)c4ccccc4F)cnc3n2)c1F [Example 529],–
< 0.5 µM,< 1 µM,"Cc1ccc2c(-c3n[nH]c4nc(N5CCC6C(C5)C6(CN)c5cc(C)on5)cnc34)cccc2n1 (stereo not drawn) [Example 25, (7-(5-methylisoxazol-3-yl)-3-(3-(2-methylquinolin-5-yl)-1H-pyrazolo[3,4-b]pyrazin-6-yl)-3-azabicyclo[4.1.0]heptan-7-yl)methanamine]",–
< 0.5 µM,< 1 µM,"Cc1cc([C@@]2(CN)[C@@H]3CCN(c4cnc5c(-c6ccc(C(F)(F)F)c7ncccc67)n[nH]c5n4)C[C@@H]32)no1 [Example 43, ((1S,6R,7S)-7-(5-methylisoxazol-3-yl)-3-(3-(8-(trifluoromethyl)quinolin-5-yl)-1H-pyrazolo[3,4-b]pyrazin-6-yl)-3-azabicyclo[4.1.0]heptan-7-yl)methanamine]",–
< 0.5 µM,< 1 µM,"NCC1(c2ccccc2F)C2CCN(c3cnc4c(-c5cccc(Cl)c5Cl)n[nH]c4n3)CC21 (stereo not drawn) [Example 3, (3-(3-(2,3-dichlorophenyl)-1H-pyrazolo[3,4-b]pyrazin-6-yl)-7-(2-fluorophenyl)-3-azabicyclo[4.1.0]heptan-7-yl)methanamine]",–
< 0.5 µM,< 1 µM,"Cn1cc2cc(-c3ccc4nc(N5CC[C@@H]6[C@H](C5)[C@@]6(CN)c5ccccc5F)cnc4n3)ccc2n1 [Example 415, ((1S,6R,7R)-7-(2-fluorophenyl)-3-(6-(2-methyl-2H-indazol-5-yl)pyrido[2,3-b]pyrazin-2-yl)-3-azabicyclo[4.1.0]heptan-7-yl)methanamine]",–
